Results on 68 compounds are retold here after patent publication US10851064B2, “ACSS2 inhibitors and methods of use thereof” (METABOMED LTD., priority 2017, dated 2020).

SMILES strings stand for the structures.

One test deals with T1, ACSS2 (Homo sapiens, UniProt Q9NR19). Put plainly: cell-based.
T1 sequence (Q9NR19 whole entry): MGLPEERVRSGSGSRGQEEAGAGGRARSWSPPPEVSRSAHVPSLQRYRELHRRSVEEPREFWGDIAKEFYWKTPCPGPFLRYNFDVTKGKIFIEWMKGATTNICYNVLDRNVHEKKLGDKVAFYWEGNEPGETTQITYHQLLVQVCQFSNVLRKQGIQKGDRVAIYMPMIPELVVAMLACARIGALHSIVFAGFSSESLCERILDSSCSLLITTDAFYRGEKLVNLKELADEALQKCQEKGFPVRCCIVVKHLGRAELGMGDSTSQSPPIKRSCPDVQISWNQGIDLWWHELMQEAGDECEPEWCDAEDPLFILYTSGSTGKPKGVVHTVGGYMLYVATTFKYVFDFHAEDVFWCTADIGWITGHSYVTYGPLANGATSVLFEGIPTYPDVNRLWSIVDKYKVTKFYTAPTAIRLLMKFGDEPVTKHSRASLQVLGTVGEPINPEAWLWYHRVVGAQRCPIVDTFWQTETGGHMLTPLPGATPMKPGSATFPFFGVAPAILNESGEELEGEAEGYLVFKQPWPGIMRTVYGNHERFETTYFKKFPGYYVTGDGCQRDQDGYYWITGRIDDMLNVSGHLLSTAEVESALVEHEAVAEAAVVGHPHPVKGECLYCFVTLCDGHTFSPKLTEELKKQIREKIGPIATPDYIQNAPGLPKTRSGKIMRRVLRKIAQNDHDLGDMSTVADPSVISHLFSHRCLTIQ
Procedure: Testing the inhibitory effect of compounds on the cellular activity of ACSS2 was done by tracing the incorporation of ^13C from ^13C-acetate into fatty-acids in MDA-MB-468 cells under hypoxic conditions of 1% 02. The assay was done for 5 hours in DMEM with 5.5 mM glucose, 1 mM sodium Pyruvate, 0.65 mM Glutamine, 3.5 ug/ml Biotin, 1% dialyzed serum, 0.5 mM 13C-acetate and with different concentrations of the inhibitors. At the end of the incubation, the cells were washed with cold PBS, harvested into glass tubes and undergo saponification. The level of ^13C incorporation into Palmitate was done by LC-MS analysis and the level of inhibition was calculated with PRISM software.
Compound `CC1=NN(c2ccc(OC(F)(F)F)cc2)C(=O)C1C(=O)Nc1cccc(C(C)(F)F)c1` (centres unmarked) [compound 226] registered an IC50 of 50 to 100 nM.
The same measure, in the same setting: under `COc1ccc(N2N=C(C)C(C(=O)Nc3cccc(C(C)(F)F)c3)C2=O)c(C(C)(C)C)c1` (centres unmarked) [compound 305] stands greater than 100 nM.
`CC1=NN(c2ccc(OC(F)F)cc2)C(=O)C1C(=O)Nc1cc(C(C)(F)F)ccc1CO` (centres unmarked) [compound 306] came in with an IC50 of 0.5 to 50 nM.
`CC1=NN(c2ccc(C3CC3)cc2)C(=O)C1C(=O)Nc1cccc(C(C)(F)F)c1` (centres unmarked) [compound 308]: the IC50 was in the range of 0.5 to 50 nM.
Still for that read-out and setting: for `CC1=NN(c2ccc(OC(F)F)cc2F)C(=O)C1C(=O)Nc1cccc(C(C)(F)F)c1` (centres unmarked) [compound 309] the value was 0.5 to 50 nM.
Still for that read-out and setting: for `CC1=NN(c2ccc(OC(F)F)c(-c3cccnc3)c2)C(=O)C1C(=O)Nc1cccc(C(C)(F)F)c1` (centres unmarked) [compound 310] the value was 0.5 to 50 nM; for `COc1cc(N2N=C(C)C(C(=O)Nc3cccc(C(C)(F)F)c3)C2=O)ccc1OC(F)F` (centres unmarked) [compound 311], 0.5 to 50 nM.
In turn, `CC1=NN(c2ccc(OC(F)F)c(-c3ccccc3)c2)C(=O)C1C(=O)Nc1cccc(C(C)(F)F)c1` (centres unmarked) [compound 312] had an IC50 of 50 to 100 nM.
On the same count and under the same terms, for `COc1ccc(N2N=C(C)C(C(=O)Nc3cccc(C(C)(F)F)c3)C2=O)cc1-c1ccccc1` (centres unmarked) [compound 313] the value was 0.5 to 50 nM.
The same measure, in the same setting: for `COc1ccc(N2N=C(C)C(C(=O)Nc3cccc(C(C)(F)F)c3)C2=O)c(F)c1` (centres unmarked) [compound 314] the value was 0.5 to 50 nM; for `CC1=NN(c2ccc(OC(F)F)c(-c3ccncc3)c2)C(=O)C1C(=O)Nc1cccc(C(C)(F)F)c1` (centres unmarked) [compound 315], 0.5 to 50 nM.
`CC1=NN(c2ccc(OC(F)F)c(-c3cncnc3)c2)C(=O)C1C(=O)Nc1cccc(C(C)(F)F)c1` (centres unmarked) [compound 316]: the IC50 was in the range of 0.5 to 50 nM.
`CCCOc1ccc(N2N=C(C)C(C(=O)Nc3cccc(C(C)(F)F)c3)C2=O)cc1` (centres unmarked) [compound 317] showed an IC50 of 0.5 to 50 nM.
On to `CC1=NN(c2ccc(OC(C)C)cc2)C(=O)C1C(=O)Nc1cccc(C(C)(F)F)c1` (centres unmarked) [compound 318], for which the IC50 lay in the range of 0.5 to 50 nM.
In turn, `CC1=NN(c2ccc(OC3CCCC3)cc2)C(=O)C1C(=O)Nc1cccc(C(C)(F)F)c1` (centres unmarked) [compound 319] registered an IC50 of 0.5 to 50 nM.
Same read-out and setting: under `COc1ccc(N2N=C(C)C(C(=O)Nc3cccc(C(C)(F)F)c3)C2=O)cc1-c1cccnc1` (centres unmarked) [compound 320] stands 0.5 to 50 nM; under `CCC(C)Oc1ccc(N2N=C(C)C(C(=O)Nc3cccc(C(C)(F)F)c3)C2=O)cc1` (centres unmarked) [compound 321], 0.5 to 50 nM; under `CC1=NN(c2ccc(OC3CCCCC3)cc2)C(=O)C1C(=O)Nc1cccc(C(C)(F)F)c1` (centres unmarked) [compound 322], 0.5 to 50 nM.
In turn, `COc1ccc(N2N=C(C)C(C(=O)Nc3cccc(C(C)(F)F)c3)C2=O)cc1-c1cncnc1` (centres unmarked) [compound 323] came in with an IC50 of 0.5 to 50 nM.
The compound `CC1=NN(c2ccc(OC(C)(C)C)cc2)C(=O)C1C(=O)Nc1cccc(C(C)(F)F)c1` (centres unmarked) [compound 324] registered an IC50 of 0.5 to 50 nM.
Same read-out and setting: for `CC1=NN(c2ccc(OC3CCC3)cc2)C(=O)C1C(=O)Nc1cccc(C(C)(F)F)c1` (centres unmarked) [compound 325] the value was 0.5 to 50 nM; for `CC1=NN(c2ccc(OC3COC3)cc2)C(=O)C1C(=O)Nc1cccc(C(C)(F)F)c1` (centres unmarked) [compound 326], 0.5 to 50 nM.

The target in the next test is T1, ACSS2. Kind of test: biochemical.
Procedure: ACSS2 Cell-Free Activity Assay (Cell-Free IC50)
The assay is based on a coupling reaction with Pyrophosphatase: ACSS2 is converting ATP+CoA+Acetate=>AMP+pyrophosphate+Acetyl-CoA (Ac-CoA). Pyrophosphatase converts pyrophosphate, a product of the ACSS2 reaction, to phosphate which can be detected by measuring the absorbance at 620 nm after incubation with the Biomol green reagent (Enzo life Science, BML-AK111).
Cell-free IC50 Determination:
At the end of the reaction, Biomol Green was added for 30 minutes at RT and the activity was measured by reading the absorbance at 620 nm.
`CC1=NN(c2ccc(OC(F)F)cc2)C(=O)C1C(=O)Nc1cc(C(C)(F)F)cc2ccoc12` (centres unmarked) [compound 403] had an IC50 of 6 to 100 nM.
Same read-out and setting: for `CC1=NN(c2cccc(Br)c2)C(=O)C1C(=O)Nc1cccc(C(C)(F)F)c1` (centres unmarked) [compound 404] the value was 0.01 to 6 nM.
Consider `CC1=NN(c2ccc3[nH]cnc3c2)C(=O)C1C(=O)Nc1cccc(C(C)(F)F)c1` (centres unmarked) [compound 405], for which the IC50 is 6 to 100 nM.
`CC1=NN(c2cc(Cc3ccccc3Cl)cc(-c3cccnc3)c2)C(=O)C1C(=O)Nc1cccc(C(C)(F)F)c1` (centres unmarked) [compound 406] displayed an IC50 of 0.01 to 6 nM.
`CC1=NN(c2ccc(OC(F)F)c(-c3noc(C)n3)c2)C(=O)C1C(=O)Nc1cccc(C(C)(F)F)c1` (centres unmarked) [compound 407] came in with an IC50 of 0.01 to 6 nM.
On the same count and under the same terms, for `CC(=O)c1cc(NC(=O)C2C(=O)N(c3ccc(OC(F)F)cc3)N=C2C)c2[nH]ccc2c1` (centres unmarked) [compound 408] the value was 100 to 1000 nM.
As for `CC1=NN(c2ccc(OC(F)F)cc2)C(=O)C1C(=O)Nc1cccc(C(C)(F)C(C)C)c1` (centres unmarked) [compound 409], the IC50 was 100 to 1000 nM.
As for `CC1=NN(c2ccc3cc[nH]c3c2)C(=O)C1C(=O)Nc1cccc(C(C)(F)F)c1` (centres unmarked) [compound 410], the IC50 lay within 0.01 to 6 nM.
In turn, `CC1=NN(c2cc(Br)cc(Cc3ccccc3Cl)c2)C(=O)C1C(=O)Nc1cccc(C(C)(F)F)c1` (centres unmarked) [compound 412] gave an IC50 of 0.01 to 6 nM.
The same measure, in the same setting: under `CC1=NN(c2ccc(OC(F)F)c(-c3ncc(C)o3)c2)C(=O)C1C(=O)Nc1cccc(C(C)(F)F)c1` (centres unmarked) [compound 415] stands 0.01 to 6 nM.
Same read-out and setting: for `CC(O)(c1ccccc1)c1cccc(NC(=O)C2C=NN(c3ccc(OC(F)F)cc3)C2=O)c1` (centres unmarked) [compound 416] the value was 6 to 100 nM.
The compound `COc1ccc(N2N=C(C)C(C(=O)Nc3cccc(C(C)(F)F)c3)C2=O)cc1-c1ccc[n+]([O-])c1` (centres unmarked) [compound 417] gave an IC50 of 100 to 1000 nM.
The same measure, in the same setting: under `CC1=NN(c2ccc(OC(F)F)cc2)C(=O)C1C(=O)Nc1cccc(C(C)(F)F)c1` (centres unmarked) [compound 418] stands 100 to 1000 nM; under `CC1=NN(c2ccc3[nH]ccc3c2)C(=O)C1C(=O)Nc1cccc(C(C)(F)F)c1` (centres unmarked) [compound 419], 0.01 to 6 nM; under `CC1=NN(c2cc(C)cc(-c3ncco3)c2)C(=O)C1C(=O)Nc1cccc(C(C)(F)F)c1` (centres unmarked) [compound 420], 0.01 to 6 nM.
Compound `CC1=NN(c2ccc(B(O)O)cc2)C(=O)C1C(=O)Nc1cccc(C(C)(F)F)c1` (centres unmarked) [compound 421] returned an IC50 of 0.01 to 6 nM.
The same measure, in the same setting: under `CC1=NN(c2ccc(Br)cc2)C(=O)C1C(=O)Nc1cccc(C(C)(F)F)c1` (centres unmarked) [compound 422] stands 0.01 to 6 nM.
Regarding `CC1=NN(c2ccc(OC(F)F)c(-c3nnc(C)o3)c2)C(=O)C1C(=O)Nc1cccc(C(C)(F)F)c1` (centres unmarked) [compound 429], the IC50 was 0.01 to 6 nM.
The same measure, in the same setting: under `COc1ccc(N2N=C(C)C(C(=O)Nc3cccc(C(C)(F)F)c3)C2=O)cc1-c1nnc(C)o1` (centres unmarked) [compound 430] stands 0.01 to 6 nM.
As to `COc1ccc(N2N=C(C)C(C(=O)Nc3cccc(C(C)(F)F)c3)C2=O)cc1-c1ccncc1` (centres unmarked) [compound 431], the IC50 was in the range of 0.01 to 6 nM.
The same measure, in the same setting: for `COc1ccc(N2N=C(C)C(C(=O)Nc3cccc(C(C)(F)F)c3)C2=O)cc1-c1cnccn1` (centres unmarked) [compound 433] the value was 0.01 to 6 nM; for `COc1ccc(N2N=C(C)C(C(=O)Nc3cccc(C(C)(F)F)c3)C2=O)cc1-c1ccccn1` (centres unmarked) [compound 434], 0.01 to 6 nM.
`CCC(F)(F)c1cccc(NC(=O)C2C(=O)N(c3ccc(OC)cc3)N=C2C)c1` (centres unmarked) [compound 435] registered an IC50 of 0.01 to 6 nM.
Still for that read-out and setting: for `CC1=NN(c2ccc(OC(F)F)c(-c3cnccn3)c2)C(=O)C1C(=O)Nc1cccc(C(C)(F)F)c1` (centres unmarked) [compound 437] the value was 0.01 to 6 nM; for `CC1=NN(c2ccc(OC(F)F)c(-c3ccccn3)c2)C(=O)C1C(=O)Nc1cccc(C(C)(F)F)c1` (centres unmarked) [compound 438], 0.01 to 6 nM.
The same measure, in the same setting: for `CC1=NN(c2ccc(OC3COC3)cc2)C(=O)C1C(=O)Nc1cccc(C(C)(F)F)c1` (centres unmarked) [compound 439] the value was 0.01 to 6 nM.
The same measure, in the same setting: under `CC1=NN(c2ccc(OC3CCC3)cc2)C(=O)C1C(=O)Nc1cccc(C(C)(F)F)c1` (centres unmarked) [compound 440] stands 0.01 to 6 nM; under `CC1=NN(c2ccc(OC(C)(C)C)cc2)C(=O)C1C(=O)Nc1cccc(C(C)(F)F)c1` (centres unmarked) [compound 441], 0.01 to 6 nM; under `COc1ccc(N2N=C(C)C(C(=O)Nc3cccc(C(C)(F)F)c3)C2=O)cc1-c1cncnc1` (centres unmarked) [compound 442], 0.01 to 6 nM.
`CC1=NN(c2ccc(OC3CCCCC3)cc2)C(=O)C1C(=O)Nc1cccc(C(C)(F)F)c1` (centres unmarked) [compound 443] returned an IC50 of 0.01 to 6 nM.
Still for that read-out and setting: for `CCC(C)Oc1ccc(N2N=C(C)C(C(=O)Nc3cccc(C(C)(F)F)c3)C2=O)cc1` (centres unmarked) [compound 444] the value was 0.01 to 6 nM; for `COc1ccc(N2N=C(C)C(C(=O)Nc3cccc(C(C)(F)F)c3)C2=O)cc1-c1cccnc1` (centres unmarked) [compound 445], 0.01 to 6 nM; for `CC1=NN(c2ccc(OC3CCCC3)cc2)C(=O)C1C(=O)Nc1cccc(C(C)(F)F)c1` (centres unmarked) [compound 446], 0.01 to 6 nM.
Same read-out and setting: under `CC1=NN(c2ccc(OC(C)C)cc2)C(=O)C1C(=O)Nc1cccc(C(C)(F)F)c1` (centres unmarked) [compound 447] stands 0.01 to 6 nM; under `CCCOc1ccc(N2N=C(C)C(C(=O)Nc3cccc(C(C)(F)F)c3)C2=O)cc1` (centres unmarked) [compound 448], 0.01 to 6 nM.
Still for that read-out and setting: under `CC1=NN(c2ccc(OC(F)F)c(-c3cncnc3)c2)C(=O)C1C(=O)Nc1cccc(C(C)(F)F)c1` (centres unmarked) [compound 449] stands 0.01 to 6 nM.
In turn, `CC1=NN(c2ccc(OC(F)F)c(-c3ccncc3)c2)C(=O)C1C(=O)Nc1cccc(C(C)(F)F)c1` (centres unmarked) [compound 450] displayed an IC50 of 0.01 to 6 nM.
Still for that read-out and setting: for `COc1ccc(N2N=C(C)C(C(=O)Nc3cccc(C(C)(F)F)c3)C2=O)c(F)c1` (centres unmarked) [compound 451] the value was 0.01 to 6 nM; for `COc1ccc(N2N=C(C)C(C(=O)Nc3cccc(C(C)(F)F)c3)C2=O)cc1-c1ccccc1` (centres unmarked) [compound 452], 0.01 to 6 nM; for `CC1=NN(c2ccc(OC(F)F)c(-c3ccccc3)c2)C(=O)C1C(=O)Nc1cccc(C(C)(F)F)c1` (centres unmarked) [compound 453], 0.01 to 6 nM.
On the same count and under the same terms, for `COc1cc(N2N=C(C)C(C(=O)Nc3cccc(C(C)(F)F)c3)C2=O)ccc1OC(F)F` (centres unmarked) [compound 454] the value was 0.01 to 6 nM; for `CC1=NN(c2ccc(OC(F)F)c(-c3cccnc3)c2)C(=O)C1C(=O)Nc1cccc(C(C)(F)F)c1` (centres unmarked) [compound 455], 0.01 to 6 nM; for `CC1=NN(c2ccc(OC(F)F)cc2F)C(=O)C1C(=O)Nc1cccc(C(C)(F)F)c1` (centres unmarked) [compound 456], 0.01 to 6 nM.
`CC1=NN(c2ccc(C3CC3)cc2)C(=O)C1C(=O)Nc1cccc(C(C)(F)F)c1` (centres unmarked) [compound 457] returned an IC50 of 0.01 to 6 nM.
On to `CC1=NN(c2ccc(OC(F)F)cc2)C(=O)C1C(=O)Nc1cc(C(C)(F)F)ccc1CO` (centres unmarked) [compound 459], for which the IC50 is 0.01 to 6 nM.
Still for that read-out and setting: under `COc1ccc(N2N=C(C)C(C(=O)Nc3cccc(C(C)(F)F)c3)C2=O)c(C(C)(C)C)c1` (centres unmarked) [compound 460] stands 0.01 to 6 nM.
